Data published in patent publication US7923984B2, “Universal, wireless, nano-optical voltmeters” (The Regents of the University Of Michigan, priority 2007, dated 2011).
Counter-ions that a name gives are not always drawn.

What was measured:
[1] = tested on: C6 glioma cells; assay: Localization, uptake and cytotoxicity of particles in C6 glioma cells; type: cell-based, Rat; conditions: same final dye concentration as delivered in the NOV
Method: Mouse C6 glioma cells were plated on to glass cover slips at a concentration of approximately 2.5×10^5 cells/mL. Cells were incubated in DMEM supplemented with 10% FBS and 1% p/s overnight. The media was then removed and replaced with fresh media. NOVs were added to the suspension (125-250 μg particles) and the cells incubated for 30 minutes. The cover slip was rinsed with HBSS containing 10 mmol N-2-Hydroxyethylpiperazine-N′-2-Ethane Sulfonic Acid (HEPES) and placed in a stainless steel cell chamber with 1 mL HBSS containing 10 mmol HEPES. In some cases TMRM dissolved in dimethyl sulfoxide was added to the chamber for a total concentration of 50 nM and the chamber was allowed to equilibrate for 10 minutes. The entire chamber was mounted on the confocal microscope and examined with a 60× objective connected to a Z series motor. One mL of a CCCP solution (total concentration 10 μM and, in some cases, containing 50 nM TMRM) was added to the cell chamber and a timer started. A series of images (1 to 2 μm in thickness) was taken in the vertical plane 15 seconds after addition of the CCCP solution, and then every minute for the first 10 minutes. Images were taken at 5 minute intervals thereafter until the 30 minute time point. Cells were illuminated at 488 nm and the fluorescent images were collected at 600 nm (50 nm band pass) and 700 nm (50 nm band pass) for the first two channels. […]

[2] = tested on: DITNC astrocytes; assay: Uptake, localization and tolerability of E-PEBBLEs in astrocytes; type: cell-based, rat; conditions: same final dye concentration as delivered in the E-PEBBLEs
Source text: Cells were illuminated at 488 nm and the fluorescent images were collected at 600 nm (50 nm band pass), 700 nm (50 nm band pass), and 525 nm (50 nm band pass).
Cell groups that appeared visually robust (i.e., elongate with little or no ruffling or blebbing of the membrane) were used for analysis.

[3] = tested on: mitochondrial membrane E field in DITNC astrocytes; assay: Repeated CCCP depolarizations in astrocytes measured by E-PEBBLEs; type: cell-based, rat; conditions: 3.1 μM at 3 min 50 s, second dose at 33 min 50 s; 600:700 nm ratio
Method: Repeated depolarizations of mitochondrial membrane potentials were performed as follows. Astrocytes were prepared as described above. Z series of Images were taken every minute for 15 minutes and every 5 minutes thereafter for 30 minutes. At time 3 minutes 50 sec, 1 μL of a CCCP solution (3.1 mM dissolved in DMSO and HBSS with HEPES; concentration in chamber was 3.1 μM) was added to the chamber. Starting at the 30 minute time point, images were again taken every minute until the 45 minute time point and every five minutes thereafter until the 60 minute time point. At time 33 minutes 50 seconds, a second dose of CCCP (3.1 mM) was added. The final concentration in the cell chamber for CCCP was 6.1 μM.
(§1) Cellular image analysis was performed as follows. Images of specific focal planes were transferred to the MetaMorph image analysis package and regions of interest (ROI) chosen consistent with TMRM-induced mitochondrial fluorescence, or the autofluorescent mitochondria of the astrocytes. In some cases, the images were expanded and regions of interest were also chosen from the surrounding cytosol. The average pixel intensity was determined for each ROI, and the emission ratio of the 525:700 nm images was then calculated. In some cases, the emission ratio of 600:700 nm was calculated. […] For the TMRM channel, the average pixel intensity was recorded. […]

[4] = tested on: mitochondrial membrane E field in C6 glioma cells; assay: CCCP depolarization of mitochondria in C6 gliomas monitored by NOV; type: cell-based, Mouse; conditions: CCCP total concentration 10 μM
Method: Depolarization, comparison with TMRM, and cytosol measurements were performed as follows. Mouse C6 glioma cells were plated on to glass cover slips at a concentration of approximately 2.5×10^5 cells/mL. Cells were incubated in DMEM supplemented with 10% FBS and 1% p/s overnight. The media was then removed and replaced with fresh media. NOVs were added to the suspension (125-250 μg particles) and the cells incubated for 30 minutes. The cover slip was rinsed with HBSS containing 10 mmol N-2-Hydroxyethylpiperazine-N′-2-Ethane Sulfonic Acid (HEPES) and placed in a stainless steel cell chamber with 1 mL HBSS containing 10 mmol HEPES. […]
Image analysis was performed as follows. Images were transferred to the MetaMorph image analysis package and regions of interest chosen consistent with TMRM-induced mitochondrial fluorescence, or the autofluorescent mitochondria of the astrocytes. […] The average pixel intensity ratio of the 600 nm image versus the 700 nm image was then calculated. For the TMRM channel, the average pixel intensity was recorded.
CCCP depolarization was performed as follows. […] A region of interest was first determined in Metamorph by the punctuated bright areas that indicated mitochondria through TMRM localization. The emission ratio was then determined at the measurement time points. […]

[5] = tested on: astrocytes, mitochondrial and microfilament regions; assay: CCCP challenge of mitochondrial and microfilament regions in astrocytes; type: cell-based; conditions: CCCP at 3 min 45 sec
Method: Microfilaments in astrocytes. Astrocytes were co-incubated with E-PEBBLEs and alexafluor-phalloidin (a microfilament stain). The fluorescence arising from the mitochondria, E-PEBBLEs, and microfilaments were able to be resolved though use of different fluorescent emission filters.
The cells were challenged with CCCP at 3 min 45 sec using normal experimental parameters, as described in Example 7.

[6] = tested on: mitochondrial membrane E field in DITNC astrocytes; assay: Sequential CCCP depolarizations in astrocytes monitored by NOVs; type: cell-based; conditions: 5 μM CCCP, second dose at 46 minutes
Method: Repeat depolarizations were performed as follows. Astrocytes were prepared as above, but the cell chamber only contained 500 μL of HBSS with HEPES. 500 μL CCCP (5 μM final concentration in chamber) was added and images were collected every minute for the first 10 minutes after the addition of CCCP and every 5 minutes thereafter until the 45 minute time point. Then 500 μL of the CCCP solution was added at the 46 minute time point, and the images taken every minute until the 55 minute time point and every five minutes until the 90 minute time point.
Image analysis was performed as follows. Images were transferred to the MetaMorph image analysis package and regions of interest chosen consistent with TMRM-induced mitochondrial fluorescence, or the autofluorescent mitochondria of the astrocytes. In some cases, the images were expanded and regions of interest (ROI) were also chosen from the surrounding cytosol. The average pixel intensity ratio of the 600 nm image versus the 700 nm image was then calculated. For the TMRM channel, the average pixel intensity was recorded.
Sequential depolarizations were performed as follows. Astrocytes with autofluorescent mitochondria (to eliminate the need for TMRM) were incubated with NOVs, transferred to a confocal microscope, and the mitochondrial membrane depolarized with the use of CCCP. […]

[7] = tested on: mitochondrial membrane E field in DITNC astrocytes; assay: CCCP challenge of mitochondrial membrane E field in DITNC astrocytes measured by E-PEBBLEs; type: cell-based, rat; conditions: CCCP 12.2 μM added at 3 min 40 s
Method: Mitochondrial membrane and cytosol potentials were measured as follows. Immortalized rat (DITNC) astrocytes with autoflourescent mitochondria (American Type Culture Collection, Manassas, Va.) were plated on to glass cover slips at a concentration of ˜2×10^5 cells/mL. Cells were incubated in Dulbecco's Modified Eagle Medium (DMEM) supplemented with 10% fetal bovine serum and 1% penicillin/streptomycin (Invitrogen, Carlsbad, Calif.) overnight. The media was then removed and replaced with fresh media. […] The cover slip was rinsed with Hank's Balanced Salt Solution (HBSS) (Invitrogen, Carlsbad, Calif.) containing 10 mmol N-2-Hydroxyethylpiperazine-N′-2-Ethane Sulfonic Acid (HEPES) and placed in a stainless steel cell chamber with 1 mL HBSS containing 10 mmol HEPES. In some cases, tetramethylrhodamine methyl ester (TMRM) (Molecular Probes, Eugene, Oreg.) dissolved in dimethyl sulfoxide (DMSO) was added to the chamber for a total concentration of ˜50 nM to confirm mitochondrial fluorescence.
The entire chamber was mounted on a confocal microscope at room temperature (Olympus IX70 connected to a Life Science Resources UltraView equipped with an Ar—Kr laser and a Lambda 10-2 Sutter wheel from Sutter Instrument Co. Novato, Calif.) and examined with a 60× objective connected to a Z series motor. Four Z stacks were taken 1 minute apart, starting with time zero. […] Slices analyzed were ˜3-4 microns into the cell as measured from the bottom of the cell. […]
as §1, with “In some cases, the images were expanded and regions of interest were also chosen from the surrounding cytosol.” left out

| SMILES | fluorescence of cells exposed to free dye in water (uptake) [1] | fluorescence of cells exposed to free dye in an aqueous solution (uptake) [2] | change of mitochondrial E field after repeated CCCP doses [3] | time for mitochondrial E field to approach zero after addition of CCCP [4] | response of microfilament regions to CCCP [5] | response of mitochondrial regions to CCCP [5] | change of mitochondrial E field after CCCP [6] | drop in E field from minute 3 to minute 4 [7] [%] | mitochondrial E field at t=4 min after CCCP [7] | overall drop in E field from t=0 min to t=30 min [7] [%] |
| --- | --- | --- | --- | --- | --- | --- | --- | --- | --- | --- |
| CCCCN(CCCC)c1ccc2cc(C=Cc3cc[n+](CCCS(=O)(=O)[O-])cc3)ccc2c1 [free dye, pyridinium, 4-(2-(6-(dibutylamino)-2-naphthalenyl)ethenyl)-1-(3-sulfopropyl)-, hydroxide, inner salt] | did not fluoresce | did not fluoresce |  |  |  |  |  |  |  |  |
| N#CC(C#N)=NNc1cccc(Cl)c1 [CCCP, Carbonyl cyanide 3-chlorophenylhydrazone] |  |  | the E field rapidly decreases, followed by a modest repolarization | approximately 10 minutes | spike at the 10-15 minute time point | normal depolarization | decrease in the E field during the first 10 minutes | 55 | −1.4×10^6 V/m | 55 |
